Laboratory results as given in ChEMBL document CHEMBL3751713, “Synthesis and Biological Activity of Mono- and Di-N-acylated Aminoglycosides” (ACS Med Chem Lett, 2015).
≈ marks a conversion by molar mass, not a printed value.

Experiments:
[1] = Drug metabolism assessed as Mycobacterium tuberculosis Eis mediated compound modification at 100 uM; assay type: ADME
Pseudomonas aeruginosa = test: Antimicrobial activity against Gram-negative Pseudomonas aeruginosa PAO1 after 16 to 24 hrs by micro-dilution method; assay type: functional
Staphylococcus aureus [2] = test: Antimicrobial activity against Gram-positive methicillin-resistant Staphylococcus aureus 2 after 16 to 24 hrs by micro-dilution method; assay type: functional
Bacillus anthracis [3] = test: Potency index, ratio MIC of kanamycin to MIC of compound for Bacillus anthracis str. Sterne; assay type: functional
Bacillus subtilis = test: Antimicrobial activity against Gram-positive Bacillus subtilis 168 after 16 to 24 hrs by micro-dilution method; assay type: functional
Bacillus anthracis [4] = test: Antimicrobial activity against Gram-positive Bacillus anthracis str. Sterne after 16 to 24 hrs by micro-dilution method; assay type: functional
[5] = Drug metabolism assessed as Escherichia coli AAC(3)-IV mediated compound modification at 100 uM; assay type: ADME
[6] = Drug metabolism assessed as Staphylococcus aureus Bifunctional AAC(6')-1e/APH(2'')-1a mediated compound modification at 100 uM; assay type: ADME
Listeria monocytogenes = test: Antimicrobial activity against Gram-positive Listeria monocytogenes ATCC 19115 after 16 to 24 hrs by micro-dilution method; assay type: functional
Staphylococcus aureus [7] = test: Antimicrobial activity against Gram-positive methicillin-resistant Staphylococcus aureus 1 after 16 to 24 hrs by micro-dilution method; assay type: functional
Haemophilus influenzae = test: Antimicrobial activity against Gram-negative Haemophilus influenzae ATCC 51907 after 16 to 24 hrs by micro-dilution method; assay type: functional
Staphylococcus aureus [8] = test: Antimicrobial activity against Gram-positive Staphylococcus aureus ATCC 29213 after 16 to 24 hrs by micro-dilution method; assay type: functional
[9] = system: Mycolicibacterium smegmatis; test: Antimicrobial activity against Mycobacterium smegmatis MC2-155 after 16 to 24 hrs by micro-dilution method; assay type: functional; details: str. MC2 155
Bacillus cereus = test: Antimicrobial activity against Gram-positive Bacillus cereus ATCC 17788 after 16 to 24 hrs by micro-dilution method; assay type: functional
[10] = system: Mycolicibacterium smegmatis; test: Potency index, ratio MIC of tobramycin to MIC of compound for Mycobacterium smegmatis MC2-155; assay type: functional, str. MC2 155
[11] = target: T1, Aminoglycoside 3'-phosphotransferase (Escherichia coli, UniProt P00551); test: Drug metabolism assessed as Escherichia coli APH(3')-Ia-mediated compound modification at 100 uM; assay type: ADME
T1 sequence (P00551 whole entry): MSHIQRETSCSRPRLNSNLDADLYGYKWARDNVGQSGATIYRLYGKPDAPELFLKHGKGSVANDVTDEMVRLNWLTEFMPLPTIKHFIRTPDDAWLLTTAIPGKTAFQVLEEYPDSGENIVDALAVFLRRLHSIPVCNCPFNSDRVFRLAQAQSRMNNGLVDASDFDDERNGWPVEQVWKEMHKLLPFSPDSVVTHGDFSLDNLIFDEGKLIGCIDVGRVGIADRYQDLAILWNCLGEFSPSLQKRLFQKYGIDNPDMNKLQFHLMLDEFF

Bacillus anthracis [12] = test: Potency index, ratio MIC of tobramycin to MIC of compound for Bacillus anthracis str. Sterne; assay type: functional

SMILES	Drug metabolism [1]	MIC (Pseudomonas aeruginosa) [µg/mL]	MIC (Staphylococcus aureus [2]) [µg/mL]	Ratio (Bacillus anthracis [3])	MIC (Bacillus subtilis) [µg/mL]	MIC (Bacillus anthracis [4]) [µg/mL]	Drug metabolism [5]	Drug metabolism [6]	MIC (Listeria monocytogenes) [µg/mL]	MIC (Staphylococcus aureus [7]) [µg/mL]	MIC (Haemophilus influenzae) [µg/mL]	MIC (Staphylococcus aureus [8]) [µg/mL]	MIC [9] [µg/mL]	MIC (Bacillus cereus) [µg/mL]	Ratio [10]	Drug metabolism [11]	Ratio (Bacillus anthracis [12])
NCC(=O)NC[C@H]1O[C@H](O[C@H]2[C@H](O)[C@@H](O[C@H]3O[C@H](CO)[C@@H](O)[C@H](N)[C@H]3O)[C@H](N)C[C@@H]2N)[C@H](O)[C@@H](O)[C@@H]1O	metabolite_detected	> 150	> 128	64	> 150	2 (≈ 3.69 µM)	metabolite_detected	metabolite_detected	150 (≈ 277 µM)	> 128	150 (≈ 277 µM)	16 (≈ 29.5 µM)	> 128	150 (≈ 277 µM)	–	–	–
NCC[C@H](O)C(=O)NC[C@H]1O[C@H](O[C@H]2[C@H](O)[C@@H](O[C@H]3O[C@H](CO)[C@@H](O)[C@H](N)[C@H]3O)[C@H](N)C[C@@H]2N)[C@H](N)C[C@@H]1O	metabolite_detected	> 150	> 128	–	> 150	2 (≈ 3.52 µM)	metabolite_detected	metabolite_detected	> 150	16 (≈ 28.1 µM)	> 150	8 (≈ 14.1 µM)	8 (≈ 14.1 µM)	> 150	>=16	metabolite_notdetected	32
CCN[C@@H]1C[C@H](N)[C@@H](O[C@H]2OC(CNC(=O)CN)=CC[C@H]2N)[C@H](O)[C@H]1O[C@H]1OC[C@](C)(O)[C@H](NC)[C@H]1O	metabolite_detected	37.5 (≈ 70.4 µM)	1 (≈ 1.88 µM)	–	37.5 (≈ 70.4 µM)	0.5 (≈ 0.939 µM)	metabolite_detected	metabolite_detected	18.8 (≈ 35.3 µM)	32 (≈ 60.1 µM)	37.5 (≈ 70.4 µM)	0.5 (≈ 0.939 µM)	1 (≈ 1.88 µM)	75 (≈ 141 µM)	–	metabolite_notdetected	–
NCC(=O)NC[C@H]1O[C@H](O[C@H]2[C@H](O)[C@@H](O[C@H]3O[C@H](CO)[C@@H](O)[C@H](N)[C@H]3O)[C@H](N)C[C@@H]2N)[C@H](N)C[C@@H]1O	metabolite_detected	18.8 (≈ 35.8 µM)	128 (≈ 244 µM)	–	75 (≈ 143 µM)	0.5 (≈ 0.953 µM)	metabolite_detected	metabolite_detected	18.8 (≈ 35.8 µM)	4 (≈ 7.63 µM)	75 (≈ 143 µM)	8 (≈ 15.3 µM)	4 (≈ 7.63 µM)	18.8 (≈ 35.8 µM)	>=32	metabolite_notdetected	128
NCC[C@H](O)C(=O)NC[C@H]1O[C@H](O[C@H]2[C@H](O)[C@@H](O[C@H]3O[C@H](CO)[C@@H](O)[C@H](N)[C@H]3O)[C@H](N)C[C@@H]2N)[C@H](O)[C@@H](O)[C@@H]1O	metabolite_detected	150 (≈ 256 µM)	> 128	32	> 150	4 (≈ 6.83 µM)	metabolite_detected	metabolite_detected	> 150	32 (≈ 54.6 µM)	> 150	32 (≈ 54.6 µM)	2 (≈ 3.42 µM)	> 150	–	–	–
CN[C@@H]1[C@@H](O)[C@@H](O[C@@H]2[C@@H](O)[C@H](O[C@H]3OC(CNC(=O)CN)=CC[C@H]3N)[C@@H](N)C[C@H]2N)OC[C@]1(C)O	metabolite_detected	18.8 (≈ 37.3 µM)	2 (≈ 3.96 µM)	–	37.5 (≈ 74.3 µM)	≤ 0.25	metabolite_detected	metabolite_detected	18.8 (≈ 37.3 µM)	8 (≈ 15.9 µM)	37.5 (≈ 74.3 µM)	1 (≈ 1.98 µM)	0.5 (≈ 0.991 µM)	75 (≈ 149 µM)	–	metabolite_notdetected	–
NCC[C@@H](O)C(=O)NC[C@H]1O[C@H](O[C@@H]2[C@@H](O)[C@H](O[C@@H]3O[C@@H](CO)[C@H](O)[C@@H](N)[C@@H]3O)[C@@H](NC(=O)[C@@H](O)CCN)C[C@H]2N)[C@H](O)[C@@H](O)[C@@H]1O (stereo in doubt)	metabolite_detected	75 (≈ 109 µM)	> 128	–	> 150	> 128	metabolite_detected	metabolite_detected	150 (≈ 218 µM)	> 128	> 150	128 (≈ 186 µM)	8 (≈ 11.6 µM)	150 (≈ 218 µM)	–	metabolite_notdetected	–
